We go through ten molecules from ChEMBL document CHEMBL1201862, “PubChem BioAssay data set” (2004).

Common to all, as to experiment: NCI-60 cell line screen, 48 h
Assay [1] concerns BT-549.
Assay [2] deals with NCI-H460.
Assay [3] deals with HL-60.
In assay [4] the test system is T47D.
The subject of assay [5] is MCF7.
For assay [6], the system named is SF-539.
The subject of assay [7] is CCRF-CEM.
Assay [8] concerns Malme-3M.
The subject of assay [9] is MOLT-4.
For assay [10], the system named is OVCAR-4.
Assay [11] relates to HCC 2998.
The subject of assay [12] is OVCAR-5.
The subject of assay [13] is TK-10.
The test system of assay [14] is SNB-75.
For assay [15], the system named is SN12C.
In assay [16] the test system is A498.
Assay [17] has as its system NCI-H522.
The test system of assay [18] is NCI/ADR-RES.
Assay [19] relates to 786-0.
Assay [20] concerns NCI-H23.

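Assay format: 96-well plates, 48-hour exposure. GI50: concentration for 50% inhibition of growth.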 Active and inactive are the calls of the source. No stated cut-off is given here; in the data, active = GI50 up to about 1.1 µM and inactive = higher.

In the case of `C=C(C)[C@@H]1CCC2=C[C@H](C/C(C)=C\C3=CC(C)=C(O3)[C@H]1O)OC2=O`, the GI50 is > 100 µM (inactive) in [1]; > 100 µM (inactive) in assay [2]; > 100 µM (inactive) in [3]; 41.9 µM (inactive) in assay [4]; 71.1 µM (inactive) in assay [5]; 48.5 µM (inactive) in assay [6]. The GI50 in assay [7] was > 100 µM (inactive); in assay [8], > 100 µM (inactive); in assay [9], > 100 µM (inactive); in assay [10], 60 µM (inactive); in assay [11], > 100 µM (inactive); in assay [12], > 100 µM (inactive). Also, the GI50 in [13] was 71 µM (inactive); in assay [14] it was > 100 µM (inactive); in assay [15], 71.8 µM (inactive); in assay [16] it was > 100 µM (inactive); in assay [17], 68.5 µM (inactive); in assay [18] it was > 100 µM (inactive). For the same molecule, the GI50 in assay [19] is 35.2 µM (inactive).

Turning to `O=C1C(Br)=CC2(C=C1Br)CCNC1=C2C(=O)c2[nH]cnc2C1=O`, the GI50 in assay [1] was 19.2 µM (inactive); in [2], 16.7 µM (inactive); in [3], 4.79 µM (inactive); in assay [4], 15.6 µM (inactive); in assay [5], 14.6 µM (inactive); in assay [6], 18.1 µM (inactive). For the same molecule, the GI50 in assay [7] is 15 µM (inactive); in assay [20], 12.6 µM (inactive); in [9] it was 41.5 µM (inactive); in assay [10], 14.5 µM (inactive); in assay [11], 25.8 µM (inactive); in assay [12], 15.9 µM (inactive). The GI50 in [13] was 29.2 µM (inactive); in assay [14], 15.6 µM (inactive); in assay [16], 19 µM (inactive); in assay [17] it was 14.4 µM (inactive); in assay [18], 21.1 µM (inactive); in [19], 16.4 µM (inactive).

Take `CCOc1ccc(NC(=O)C(=O)C(/C(=N/N)C(=O)OC)c2nc3ccc([N+](=O)[O-])cc3nc2O)cc1` (configuration not stated): the GI50 in assay [1], in [2], in [4], in assay [5], in assay [6] and in assay [7] was > 100 µM (inactive) in each case. The GI50 in assay [20], in assay [8], in assay [9], in assay [10], in assay [11] and in [12] was > 100 µM (inactive) in each case. Moreover, the GI50 in [13], in assay [14], in assay [15], in [16], in assay [17] and in assay [18] was > 100 µM (inactive) in each case. For the same molecule, the GI50 in assay [19] was > 100 µM (inactive).

`CCOC(=O)CNC(=O)C(CSC(=O)N(O)c1ccc(Br)cc1)NC(=O)CCC(N)C(=O)OCC` (configuration not stated): the GI50 in assay [1] was > 50 µM (inactive); in assay [2] it was > 50 µM (inactive); in assay [3] it was 0.005 µM (active); in [4] it was > 50 µM (inactive); in assay [5] it was > 50 µM (inactive); in assay [6], > 50 µM (inactive). The GI50 in assay [7] is 27.4 µM (inactive); in assay [20], > 50 µM (inactive); in [8], > 50 µM (inactive); in assay [9], 2.96 µM (inactive); in [10] it was > 50 µM (inactive); in [11] it was > 50 µM (inactive). Also, the GI50 in assay [12], in assay [15], in [16], in [17], in assay [18] and in assay [19] was > 50 µM (inactive) each time.

For the molecule `Cc1ccc(C)c(COCCOCn2ccc(N)nc2=O)c1`, the GI50 in assay [1] is > 100 µM (inactive); in assay [2], > 100 µM (inactive); in [3], 18.5 µM (inactive); in [4] it was > 100 µM (inactive); in assay [5] it was > 100 µM (inactive); in [6] it was > 100 µM (inactive). Besides, the GI50 in [7] was 0.785 µM (active); in assay [20], > 100 µM (inactive); in assay [8], > 100 µM (inactive); in assay [9] it was > 100 µM (inactive); in assay [11] it was > 100 µM (inactive); in [12] it was > 100 µM (inactive). Besides, the GI50 in assay [13], in assay [14], in [15], in assay [16], in assay [17] and in [18] was > 100 µM (inactive) throughout. Besides, the GI50 in assay [19] was > 100 µM (inactive).

Consider `NP(=O)(Oc1c2occc2cc2ccc(=O)oc12)N(CCCl)CCCl` (configuration not stated), for which the GI50 was > 100 µM (inactive) in assay [1]; 68.1 µM (inactive) in assay [2]; 70.1 µM (inactive) in assay [3]; 48.5 µM (inactive) in [4]; 51.1 µM (inactive) in assay [5]; > 100 µM (inactive) in assay [6]. Also, the GI50 was 45.2 µM (inactive) in assay [7]; > 100 µM (inactive) in assay [20]; > 100 µM (inactive) in [8]; 28.8 µM (inactive) in [9]; > 100 µM (inactive) in assay [10]; > 100 µM (inactive) in assay [11]. Also, the GI50 in [12], in [13], in assay [15], in [16], in [17] and in [18] was > 100 µM (inactive) in each case. For the same molecule, the GI50 in assay [19] was > 100 µM (inactive).

On to `O=C1C(Cl)=C(N2C(=O)CCC2=O)C(=O)c2ccccc21`, for which the GI50 in assay [1] is 20.5 µM (inactive); in [2] it was 53.6 µM (inactive); in assay [3], 2.51 µM (inactive); in assay [4] it was 32.4 µM (inactive); in [5], 17.2 µM (inactive); in assay [6], 39.8 µM (inactive). In addition, the GI50 in [7] was 2.62 µM (inactive); in assay [20] it was 29 µM (inactive); in assay [9], 50.7 µM (inactive); in [11], 22.5 µM (inactive); in [12], 20.4 µM (inactive); in assay [13] it was 39.8 µM (inactive). The GI50 in assay [14] is > 100 µM (inactive); in assay [15], 17.9 µM (inactive); in [16] it was 37.9 µM (inactive); in assay [17], 17.8 µM (inactive); in assay [18], 89.3 µM (inactive); in assay [19] it was 18.7 µM (inactive).

Take `CC[C@H]1CN(C)[C@H]2Cc3c([nH]c4ccccc34)C(=O)C[C@H]1C2C(=O)OC` (some centres not stated): the GI50 in assay [1] was > 100 µM (inactive); in assay [2], > 100 µM (inactive); in assay [3], 68.9 µM (inactive); in [4], > 100 µM (inactive); in assay [5], > 100 µM (inactive); in assay [6], > 100 µM (inactive). In addition, the GI50 is 97.5 µM (inactive) in assay [7]; > 100 µM (inactive) in assay [20]; > 100 µM (inactive) in assay [8]; 73.6 µM (inactive) in assay [9]; > 100 µM (inactive) in assay [10]; > 100 µM (inactive) in assay [11]. Further, the GI50 in [12], in [13], in assay [15], in assay [16], in assay [17] and in assay [18] was > 100 µM (inactive) each time. Moreover, the GI50 in [19] is > 100 µM (inactive).

With `c1ccc(-c2cc(C3CO3)c3ccccc3n2)cc1` (configuration not stated), the GI50 in assay [1] was 20.7 µM (inactive); in assay [2] it was 18.8 µM (inactive); in [3], 26.9 µM (inactive); in assay [4], 18.9 µM (inactive); in assay [5] it was 16.2 µM (inactive); in assay [6], 21.2 µM (inactive). For the same molecule, the GI50 is 29.6 µM (inactive) in assay [7]; 19.1 µM (inactive) in assay [20]; 23.7 µM (inactive) in assay [9]; 21.5 µM (inactive) in assay [10]; 20 µM (inactive) in [11]; 22 µM (inactive) in assay [12]. Moreover, the GI50 in [13] is 21.6 µM (inactive); in assay [14] it was 25.9 µM (inactive); in assay [15], 16.3 µM (inactive); in assay [16] it was 19.7 µM (inactive); in assay [17], 3.99 µM (inactive); in [18], 24.3 µM (inactive). Further, the GI50 in [19] is 15.5 µM (inactive).

As to `Cc1nc2ccccc2[nH]/c1=N/Nc1ccccc1`, the GI50 was 20.7 µM (inactive) in assay [1]; 35.6 µM (inactive) in [2]; 11.7 µM (inactive) in [3]; 2.11 µM (inactive) in assay [4]; 12.3 µM (inactive) in assay [5]; 44.5 µM (inactive) in assay [6]. Besides, the GI50 in assay [7] was 4.23 µM (inactive); in assay [20] it was 18.1 µM (inactive); in [8], 20.3 µM (inactive); in assay [10], 9.66 µM (inactive); in [11], 38.9 µM (inactive); in assay [12], 26.7 µM (inactive). The GI50 in assay [13] was > 100 µM (inactive); in assay [14], 18.1 µM (inactive); in assay [15] it was 26.4 µM (inactive); in [16], 31.8 µM (inactive); in assay [17], 26.1 µM (inactive); in assay [18] it was 15 µM (inactive). Moreover, the GI50 in assay [19] is 25.2 µM (inactive).
